Assay results taken from patent publication US4920124A, “N-substituted 3,4-dihydropyrimidine compounds as agents for treating disorders of cardiovascular system” (Suntory Limited, priority 1987, dated 1990).

Experiments:
vertebral artery [1] = assay: vascular resistance of the vertebral artery in anesthetized dogs (ED30); format: in vivo, dog; details: Canis lupus familiaris, intravenous injection
vertebral artery [2] = assay: time course of changes in the vascular resistance of the vertebral artery in anesthetized dogs (T1/2); format: in vivo, dog; details: injected with the ED30 doses
Description: Adult dogs of either sex (7~14 kg in body weight) were anesthetized with at first thiopental sodium (35 mg/kg, intraperitoneal), anesthetized with urethane (400 mg/kg, intravenous) and chloralose (60 mg/kg, intravenous) and kept under artificial respiration throughout the experiment. After thoracotomy at the left first intercostal space, the vertebral artery was exposed and blood flow was measured with intracorporeal flow probe connected to an electromagnetic flowmeter (MF-27, Nihon Kohden).
At the same time, continuous measurement of the following parameters was made: systemic blood pressure (mean pressure) at the right femoral artery, the limb lead II ECG, the heart rate with a tachometer triggered by the R wave of ECG, and the vascular resistance determined by loading a electronic divider unit (EO-601 G, Nihon Kohden) with the mean values of blood pressure and vertebral artery blood flow. All of these parameters were recorded simultaneously on a polygraph (RM-600, Nihon Kohden).
All the test compounds were injected through a cannula inserted into the femoral vein.
Selected compounds of the present invention were tested for their ability to reduce the resistance of the vertebral artery in anesthetized dogs.
The animals were injected with the ED30 doses of test compounds and the time course of changes in the vascular resistance were studied in the same manner as in Example 26. The time course of changes can be as shown schematically in FIG. 1. From the curve shown in FIG. 1, the values of T1/2 (min) (the time to reach 50% of the resistance drop) were calculated. The results are shown in Table 3, in which the compound numbers correspond to the Example numbers.

Row | Compound | ED30 (vertebral artery [1]) | T1/2 (the time to reach 50% of the resistance drop) (vertebral artery [2])
1 | CC1=NC(C)=C(C(=O)OC(C)C)C(c2ccccc2[N+](=O)[O-])N1C(=O)OCCN(Cc1ccccc1)Cc1ccc(Cl)c(Cl)c1 (centres unmarked) [Example 1, 3-[2-{N-benzyl-N-(3,4-dichlorobenzyl)amino}ethoxycarbonyl]-5-isopropoxycarbonyl-2,6-dimethyl-4-(2-nitrophenyl)-3,4-dihydropyrimidine] | 2.1 µg/kg | > 25.0 min
2 | CC1=NC(C)=C(C(=O)OC(C)C)C(c2cccc([N+](=O)[O-])c2)N1C(=O)OCCN(Cc1ccccc1)Cc1ccc(Cl)c(Cl)c1 (centres unmarked) [Example 24, 3-[2-{N-benzyl-N-(3,4-dichlorobenzyl)amino}ethoxycarbonyl]-5-isopropoxycarbonyl-2,6-dimethyl-4-(3-nitrophenyl)-3,4-dihydropyrimidine] | – | 16.0 min
3 | CC1=NC(C)=C(C(=O)OC(C)C)C(c2ccccc2[N+](=O)[O-])N1C(=O)OCCN(Cc1ccccc1)Cc1ccc(C(F)(F)F)cc1 (centres unmarked) [Example 16] | – | 7.9 min
4 | CC1=NC(C)=C(C(=O)OC(C)C)C(c2ccccc2[N+](=O)[O-])N1C(=O)OCCN(Cc1ccccc1)Cc1ccc(F)cc1 (centres unmarked) [Example 3] | 2.6 µg/kg | –
5 | CC1=NC(C)=C(C(=O)OC(C)C)C(c2ccccc2[N+](=O)[O-])N1C(=O)OCCN(Cc1ccccc1)Cc1cccc(F)c1 (centres unmarked) [Example 11] | 2.1 µg/kg | –
6 | CC1=NC(C)=C(C(=O)OC(C)C)C(c2ccccc2[N+](=O)[O-])N1C(=O)OCCN(Cc1ccccc1)Cc1ccccc1Cl (centres unmarked) [Example 13] | 4.7 µg/kg | –
7 | CC1=NC(C)=C(C(=O)OC(C)C)C(c2ccccc2[N+](=O)[O-])N1C(=O)OCCN(Cc1ccccc1)Cc1cccc(Cl)c1 (centres unmarked) [Example 14] | – | 10.6 min
8 | CC1=NC(C)=C(C(=O)OC(C)C)C(c2ccccc2[N+](=O)[O-])N1C(=O)OCCN(Cc1ccc(Cl)cc1)Cc1cccc(Cl)c1 (centres unmarked) [Example 22] | – | 19.5 min
9 | CC1=NC(C)=C(C(=O)OC(C)C)C(c2ccccc2[N+](=O)[O-])N1C(=O)OCCN(Cc1ccccc1)Cc1ccc(Cl)cc1Cl (centres unmarked) [Example 15] | – | > 20.0 min
10 | COc1ccc(CN(CCOC(=O)N2C(C)=NC(C)=C(C(=O)OC(C)C)C2c2ccccc2[N+](=O)[O-])Cc2ccc(Cl)c(Cl)c2)cc1 (centres unmarked) [Example 21] | – | 20.0 min
11 | COc1ccc(CN(CCOC(=O)N2C(C)=NC(C)=C(C(=O)OC(C)C)C2c2ccccc2[N+](=O)[O-])Cc2ccccc2)cc1 (centres unmarked) [Example 2] | 1.8 µg/kg | 8.2 min
12 | CC1=NC(C)=C(C(=O)OC(C)C)C(c2ccccc2[N+](=O)[O-])N1C(=O)OCCN(Cc1ccccc1)Cc1ccc(Cl)cc1 (centres unmarked) [Example 4] | 2.9 µg/kg | –
13 | COc1cccc(CN(CCOC(=O)N2C(C)=NC(C)=C(C(=O)OC(C)C)C2c2ccccc2[N+](=O)[O-])Cc2ccccc2)c1 (centres unmarked) [Example 10] | 1.8 µg/kg | –
14 | CC1=NC(C)=C(C(=O)OC(C)C)C(c2ccccc2[N+](=O)[O-])N1C(=O)OCCN(Cc1ccccc1)Cc1c(Cl)cccc1Cl (centres unmarked) [Example 25] | – | 11.7 min
15 | CC1=NC(C)=C(C(=O)OC(C)C)C(c2ccccc2[N+](=O)[O-])N1C(=O)OCCN(Cc1ccccc1)Cc1ccccc1F (centres unmarked) [Example 9] | 2.3 µg/kg | –
16 | CC1=NC(C)=C(C(=O)OC(C)C)C(c2ccccc2[N+](=O)[O-])N1C(=O)OCCN(Cc1ccc(Cl)cc1)Cc1ccc([N+](=O)[O-])cc1 (centres unmarked) [Example 20] | – | 10.2 min
17 | CC1=NC(C)=C(C(=O)OC(C)C)C(c2ccccc2[N+](=O)[O-])N1C(=O)OCCN(Cc1ccc(F)cc1)Cc1ccc(F)cc1 (centres unmarked) [Example 6] | 1.3 µg/kg | –
18 | CC1=NC(C)=C(C(=O)OC(C)C)C(c2ccccc2[N+](=O)[O-])N1C(=O)OCCN(Cc1ccccc1)Cc1ccc(C)cc1 (centres unmarked) [Example 5] | 2.8 µg/kg | –
